The record followed here is US10232020B2, “Incretin-insulin conjugates” (priority 2014, dated 2019).

Starred links: 1 amine or outer side, 2 acyl side, 3 side chain; linkers in the order of their positions; H or OH if unused. Non-standard residues stand in square brackets, D forms with d. Groups on a side chain read outwards from the residue. No end group written: not given here. *: point of attachment. γGlu = O=C(O)[C@H](CCC(=O)[*:2])N[*:1]; Palmitoyl = CCCCCCCCCCCCCCCC(=O)*; Aib = CC(C)(N)C(=O)O A value given as a limit tells only on which side of the number the result lay.

Data set [1] can be described thus: physchem. As for the experimental part:
The rate of cleavage was determined for the respective propeptides. The concentrations of the propeptides and the model parent peptide were determined by their respective peak areas. […] The slope of this plot provides the rate constant ‘k’.

For data set [2], the system named is diabetic mice. The experiment in a line: Blood glucose, food intake and body weight in diabetic mice. Particulars: for body weight: FIG. 17D; for blood glucose levels and duration of action: FIG. 15B. In kind it is in vivo. As to the method:
Six- to eight-week-old male C57BL/6 mice were maintained at 23° C., constant humidity, and a 12-h light-dark cycle. The acute in vivo effects of select peptides were evaluated by subcutaneously injecting peptides solubilized in physiologically buffered saline or a vehicle control to normal or diabetic mice. Blood glucose was measured at various time points through the course of a 24 hr period following administration of the peptides. Each group of mice contained 8 animals per group. The average body weight was ˜25 g. Mice were made diabetic by administration of streptozotocin.
Repeat daily subcutaneous administration of the peptides or vehicle control was administered to the mice for periods of five days to two weeks. The obese mice were given a diabetogenic diet Mice had free access to water and were fed ad libitum with a high fat diet (HFD) comprising 58% of calories from fat (D12331; Research Diets, New Brunswick, N.J.) and each group of mice contained 8 animals per group. The average body weight was ˜50 g and the mice were ˜6 months old males. Body weight and food intake were measured on the days that peptide or vehicle control was administered to the mice. Fasting blood glucose levels were measured repeatedly.

The target in data set [3] is T1, GIP receptor (Homo sapiens, UniProt P48546).
T1 construct: expressed in transfected cells; host or cells: HEK293
T1 sequence (P48546 22-466): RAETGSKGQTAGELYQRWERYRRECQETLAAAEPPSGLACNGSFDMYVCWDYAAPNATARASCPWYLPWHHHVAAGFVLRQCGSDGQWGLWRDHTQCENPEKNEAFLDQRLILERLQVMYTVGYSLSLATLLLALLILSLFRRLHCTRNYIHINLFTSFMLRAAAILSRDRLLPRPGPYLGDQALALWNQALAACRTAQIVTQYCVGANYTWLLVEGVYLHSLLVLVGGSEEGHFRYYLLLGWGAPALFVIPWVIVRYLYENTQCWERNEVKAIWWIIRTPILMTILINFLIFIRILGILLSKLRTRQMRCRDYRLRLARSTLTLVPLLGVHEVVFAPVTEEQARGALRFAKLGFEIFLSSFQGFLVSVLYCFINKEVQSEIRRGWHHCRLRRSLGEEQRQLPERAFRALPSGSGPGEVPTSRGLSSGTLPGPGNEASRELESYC
Description: cAMP synthesis luciferase reporter assay in HEK293 cells, GIP receptor. In kind it is cell-based. Conditions: read-out: Normalized GIP EC50 (nM) MEAN; Table 4. From the text: (§1) Structures associated with the abbreviated lipidated groups designated in Table 4 are as follows: […]
On the technique in general: In a reporter assay the amount or activity of a reporter protein is the signal.

Data set [4] addresses T2, GLP-1 receptor (Homo sapiens, UniProt P43220).
T2 construct: expressed in transfected cells; host or cells: HEK293
The experiment in a line: cAMP synthesis luciferase reporter assay in HEK293 cells, GLP-1 receptor. In kind it is cell-based. Particulars: for EC50: read-out: Normalized GLP-1 EC50 (nM) MEAN, Table 4.
Description: as §1

The test system of data set [5] is diabetic mice. The experiment in a line: Blood glucose, food intake and body weight in diabetic mice. Particulars: four days; for weight loss: daily or twice a day, FIG. 14B. Type of data set: in vivo.
The target of data set [6] is T3, insulin receptor (IR-B) (Homo sapiens, UniProt P06213).
T3 construct: expressed in transfected cells
The experiment in a line: In vitro activity at insulin B receptor (IR-B). Type of data set: cell-based. Conditions: Table 4; read-out: Normalized IR-B EC50 (nM) MEAN. As for the experimental part:
Color development was stopped 5 min later by adding 0.05 ml 1 N HCl. Absorbance at 450 nm was measured on Titertek Multiscan MCC340 (ThermoFisher, Pittsburgh, Pa.). […] Structures associated with the abbreviated lipidated groups designated in Table 4 are as follows: […]

T2 sequence (P43220 24-463, species assumed): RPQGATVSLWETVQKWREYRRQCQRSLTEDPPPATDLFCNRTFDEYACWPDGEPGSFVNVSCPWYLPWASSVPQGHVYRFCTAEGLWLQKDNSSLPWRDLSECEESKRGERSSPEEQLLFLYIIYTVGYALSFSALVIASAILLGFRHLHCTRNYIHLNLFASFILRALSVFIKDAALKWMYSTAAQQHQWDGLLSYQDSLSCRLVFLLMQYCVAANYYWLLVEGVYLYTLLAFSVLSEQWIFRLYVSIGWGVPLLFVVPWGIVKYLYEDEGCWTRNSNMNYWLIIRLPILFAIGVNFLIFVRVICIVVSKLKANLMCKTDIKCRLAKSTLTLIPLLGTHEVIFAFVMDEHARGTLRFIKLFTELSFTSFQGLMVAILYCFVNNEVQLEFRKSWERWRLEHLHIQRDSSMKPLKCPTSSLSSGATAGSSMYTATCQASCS

As for “EPHSRGTF-NH2 [Table 3 no. 10: E, P, H-SRGTF-NH2]”, the t1/2 result in data set [1] (buffer) is given as “No cleavage”.

Turning to “CIU-037: HXEGTFTSDVSSYLEEQAAREFIAWLVRGGPSSGAPPPSK(20K PEG) (SEQ ID NO: 1966); C(S-S)—CH2CH2CH2-B^1 Insulin”, the blood glucose levels result is reported as “improved blood glucose levels achieved relative to pegylated insulin” in data set [2] (1, 2.5 or 5 nmol/kg, seven days, FIG. 17B) and “blood glucose levels inversely proportional to the dose administered” in data set [2] (5, 10 or 20 nmol/kg, FIG. 16B). For the same compound, in data set [2] (FIG. 17E), the “fat mass and lean mass” value is “comes from fat mass and not lean mass”. Besides, the food intake entry in data set [2] (seven days, FIG. 17C) was “suppress food intake”. In addition, in data set [2] (seven days), the body weight entry is recorded as “induces loss in body weight”.

As for `C[C@@H](O)[C@H](NC(=O)CNC(=O)[C@H](CCCNC(=N)N)NC(=O)[C@H](CO)NC(=O)[C@H](Cc1c[nH]cn1)NC(=O)[C@@H]1CCCN1C(=O)CO)C(=O)N[C@@H](Cc1ccccc1)C(N)=O`, in data set [1] (buffer), the t1/2 result was “No cleavage”. On to “KPHSRGTF-NH2 [Table 3 no. 9: K, P, H-SRGTF-NH2]”, for which, in data set [1] (Table 3, words or unit not given, PBS), the t1/2 result is given as “No cleavage”. “CIU-146: YXEGTFTSDU2SIYLDKQAAXEFVNWLLAGGPSSGAPPPS (SEQ ID NO: 2014); C(S-S)—CH2CH2CH2-B^1Desdi (Y[Aib]EGTFTSDKSIYLDKQAA[Aib]EFVNWLLAGGPSSGAPPPS; not fully specified (residue 10, C-terminus); also: disulfide-linked propyl to B1 of desdi insulin, site not given here)”: in data set [3], the concentration giving a half-maximal response (EC50) stood at 0.0014 nM. As to `C[C@@H](O)[C@H](NC(=O)CNC(=O)[C@H](CCCNC(=N)N)NC(=O)[C@H](CO)NC(=O)[C@H](Cc1c[nH]cn1)NC(=O)[C@@H]1CCCN1C(=O)[C@@H]1CCCN1)C(=O)N[C@@H](Cc1ccccc1)C(N)=O` [Table 3 no. 8: P, P, H-SRGTF-NH2], the t1/2 result in data set [1] (buffer) is “No cleavage”. As for “CIU-123: HXEGTFTSDUSIYLDKQAAXEFVNWLLAGGPSSGAPPPS (SEQ ID NO: 2013); C(S-S)—CH2CH2CH2-B^1Desdi (H[Aib]EGTFTSDK([γGlu-Palmitoyl])SIYLDKQAA[Aib]EFVNWLLAGGPSSGAPPPS; also: disulfide-linked propyl to B1 of desdi insulin, site not given here)”, the EC50 in data set [4] was determined as 0.0032 nM; in data set [3] it was 0.0036 nM. For “GPHSRGTF-NH2 [Table 3 no. 3: G, P, H-SRGTF-NH2]”, in data set [1] (buffer), the t1/2 entry is given as “No cleavage”. Still for that read-out and setting: with `C[C@@H](O)[C@H](NC(=O)CNC(=O)[C@H](CCCNC(=N)N)NC(=O)[C@H](CO)NC(=O)[C@H](Cc1c[nH]cn1)NC(=O)[C@@H]1CCCN1C(=O)[C@H]1CCCN1)C(=O)N[C@@H](Cc1ccccc1)C(N)=O` [Table 3 no. 13: d-P, P, H-SRGTF-NH2] the entry was “No cleavage”. Turning to “CIU-26: pegylated native insulin (20 K PEG linked to the B29 side chain) [reference compound]”, the food intake result in data set [2] (FIG. 13) is reported as “does not”; in data set [2] (FIG. 16C), “did not”; in data set [2] (seven days, FIG. 17C) it was “does not”. Besides, in data set [2] (seven days), the body weight result is recorded as “not”. Also, the weight loss result in data set [5] was “failed to induce weight loss”. Turning to “APHSRGTF-NH2 [Table 3 no. 5: A, P, H-SRGTF-NH2]”, the t1/2 result in data set [1] (buffer) is “No cleavage”. In the case of `CNC(C)(C)C(=O)N1CCC[C@H]1C(=O)N[C@@H](Cc1c[nH]cn1)C(=O)N[C@@H](CO)C(=O)N[C@@H](CCCNC(=N)N)C(=O)NCC(=O)N[C@H](C(=O)N[C@@H](Cc1ccccc1)C(N)=O)[C@@H](C)O` [Table 3 no. 19: N—Me-Aib, P, H-SRGTF-NH2], the half-life in data set [1] (buffer) is greater than 20.8 days. For “CPHSRGTF-NH2 [Table 3 no. 6: C, P, H-SRGTF-NH2]”, the t1/2 result in data set [1] (buffer) is reported as “No cleavage”. The same measure, in the same setting: with `CC(C)=C(N)C(=O)N1CCC[C@H]1C(=O)N[C@@H](Cc1c[nH]cn1)C(=O)N[C@@H](CO)C(=O)N[C@@H](CCCNC(=N)N)C(=O)NCC(=O)N[C@H](C(=O)N[C@@H](Cc1ccccc1)C(N)=O)[C@@H](C)O` the entry was “No cleavage”. On the same count and under the same terms, with `C[C@@H](O)[C@H](NC(=O)CNC(=O)[C@H](CCCNC(=N)N)NC(=O)[C@H](CO)NC(=O)[C@H](Cc1c[nH]cn1)NC(=O)[C@H]1CCCN1C(=O)[C@@H]1CCCN1)C(=O)N[C@@H](Cc1ccccc1)C(N)=O` [Table 3 no. 12: P, d-P, H-SRGTF-NH2] the entry was “No cleavage”.

With “CIU-013: HXEGTFTSDVSSYLEEQAAKEFIAWLVKGGPSSGAPPPSGU (SEQ ID NO: 1954); C(S-S)—CH2CH2CH2-B^1 Insulin”, the lowering blood glucose result in data set [2] (5, 15 or 20 nmoles/kg, FIG. 11B) is recorded as “all doses of the compound are effective in lowering blood glucose”. The food intake entry in data set [2] (FIG. 13) is “suppressing food intake”; in data set [5] (FIG. 14C), “suppresses food intake relative to the administration of the pegylated insulin analog”. The “blood glucose levels and duration of action” value in data set [2] was “demonstrate activity in reducing blood glucose levels and demonstrate an extended duration of action relative to native insulin”. For the same compound, the blood glucose result in data set [2] (daily or 2× a day, one fifth the dosage of the pegylated insulin, FIG. 14D) is on record as “would appear to not be as effective as insulin”. For the same compound, the “24 hour blood glucose” value in data set [2] (second administration at 6 hours, 10 nmole/kg(×2), FIG. 12B) is on record as “about 100 mg/dL”. Moreover, in data set [5], the weight loss result was “produced significant weight loss”. As to `C[C@@H](O)[C@H](NC(=O)CNC(=O)[C@H](CCCNC(=N)N)NC(=O)[C@H](CO)NC(=O)[C@H](Cc1c[nH]cn1)NC(=O)[C@@H]1CCCN1C(=O)[C@@H](O)Cc1ccccc1)C(=O)N[C@@H](Cc1ccccc1)C(N)=O`, in data set [1] (buffer), the t1/2 result was “No cleavage”. The same measure, in the same setting: next, “FPHSRGTF-NH2 [Table 3 no. 1: F, P, H-SRGTF-NH2]”: “No cleavage”.

Regarding “SEQ ID NO: 128: glucagon analog substituting the native glutamine at position 3 with glutamic acid”, the “selectivity for the GLP-1 receptor” value in data set [4] (versus glucagon receptor) is listed as “tenfold”. `C[C@@H](O)[C@H](NC(=O)CNC(=O)[C@H](CCCNC(=N)N)NC(=O)[C@H](CO)NC(=O)[C@H](Cc1c[nH]cn1)NC(=O)[C@@H](N)Cc1ccc(NC(=O)CNC(=O)CO)cc1)C(=O)N[C@@H](Cc1ccccc1)C(N)=O`: the t1/2 entry in data set [1] (Table 2, result in words, PBS) was “No cleavage”.

As for “CIU-055: HXEGTFTSDVSSYLEEQAAREFIAWLVRGGPSSGAPPPSK(20K PEG) (SEQ ID NO: 1974); C(S-S)—CH2CH2CH2-B^1 DesDi”, the EC50 in data set [6] is 1140 nM. Take “CIU-021: HXEGTFTSDUSSYLEEQAAKEFIAWLVKGGPSSGAPPPSG (SEQ ID NO: 1958); Pen(S-S)—CH2CH2CH2-B^1 Insulin”: in data set [2], the “blood glucose levels and duration of action” value was “demonstrate activity in reducing blood glucose levels and demonstrate an extended duration of action relative to native insulin”. Same read-out and setting: with “CIU-012: HXEGTFTSDUSSYLEEQAAKEFIAWLVKGGPSSGAPPPSG (SEQ ID NO: 1953); C(S-S)—CH2CH2CH2-B^1 Insulin” the entry was “demonstrate activity in reducing blood glucose levels and demonstrate an extended duration of action relative to native insulin”.

Consider `C[C@@H](O)[C@H](NC(=O)CNC(=O)[C@H](CCCNC(=N)N)NC(=O)[C@H](CO)NC(=O)[C@H](Cc1c[nH]cn1)NC(=O)[C@@H](N)Cc1ccc(NC(=O)CNC(=O)CN)cc1)C(=O)N[C@@H](Cc1ccccc1)C(N)=O`, for which the t1/2 result in data set [1] (Table 2, result in words, PBS) was “No cleavage”.

For “SPHSRGTF-NH2 [Table 3 no. 7: S, P, H-SRGTF-NH2]”, the t1/2 result in data set [1] (buffer) is “No cleavage”. Regarding “CIU-004: XEGTFTSDVSSYLEEQAAKEFIAWLVKGGPSSGAPPPS (SEQ ID NO: 1945); C(S-S)—CH2CH2CH2-B^1 Insulin (conjugate chemistry not built)”, the EC50 worked out at 7.96 nM in data set [4] and 0.59 nM in data set [6].

As a reminder, the EC50 is the midpoint of the concentration-response curve. By half-life is commonly meant the time in which the quantity being followed falls by half. Low readings indicate fast loss, high ones slow loss.
